Measured values: publication PMC6240096, “A hPSC-based platform to discover gene-environment interactions that impact human β-cell and dopamine neuron survival” (Nature Communications, 2018)

Assays:
INS+ cells = assay: High-content survival / inhibitory curve, hESC-derived INS+ cells; type: cell-based, human
Procedure: (§1) The screening library ToxCast Phase I was obtained from the US Environmental Protection Agency, which contains approximately 2000 compounds dissolved at 20 mM in DMSO. The H1 hESC-derived population was dissociated with Accutase and re-plated onto laminin V-coated 384-well plates at 5000 cells per well. After 16 h incubation, cells were treated with individual compounds from the ToxCast library with four concentrations, including 20 nM, 200 nM, 2 μM, and 20 μM, for each compound. After 4 days, the cells were fixed with 10% formalin and stained with an INS antibody and DAPI, followed by automatic imaging and analysis by ImageXpress^MICRO Automated High-Content Analysis System (Molecular Devices) to count the numbers of INS^+ and INS^− cells. The survival rate was calculated by dividing the numbers of INS^+ cells in compound treated conditions by the average number of INS^+ cells in DMSO-treated conditions. The compounds that induced more than 60% reduction of the survival rate of INS^+ cells and less than 20% of the INS^− cells were chosen as primary hits. Hit compounds were then selected and validated in three additional independent experiments using the same protocol as the primary screening.
hESCs-derived INS^+ cells, MSCs[43], neurons, and hepatocytes[44] were derived based on the reported protocols and re-plated on 96-well plates with Accutase digestion. Cardiomyocytes (CMs) were differentiated from H9-MYH6: mCherry reporter line, based on the reported protocol. After overnight incubation, cells were treated with DMSO or different doses of hit compounds for 4 days. After fixation, the cells were stained with markers for each cell type. DAPI was used to stain cell nuclei. Plates were analyzed by ImageXpress^MICRO Automated High-Content Analysis System.

MIN6 cells = assay: Western blotting of γ-H2A.X and extracellular HMGB1 in MIN6 cells; type: cell-based, mouse; details: 2 mM GSH, day 4
Description: To extract intracellular protein, cells were placed on ice, washed twice with ice-cold PBS and lysed immediately with RIPA buffer (Life Technologies, 89900) supplemented with a protease inhibitor cocktail (Life Technologies, 78440). Cell lysates were then sonicated and the soluble fraction was collected after centrifugation. Protein amount was quantified by the BCA protein assay (Life Technologies, 23227). To extract extracellular HMGB1, tissue culture media were collected and concentrated using Afyon SDS-PAGE sample preparation kit (advansta, K-02101-025). 20 μg of total protein for each sample was mixed with loading buffer and incubated for 5 min at 95 °C before being loaded into NuPAGE® Novex® 4–12% […] Protein Gels (Life Technologies, NP0321BOX) for electrophoresis. Separated proteins were transferred to a PVDF membrane (Millipore, IPSN07852) after electrophoresis. The membrane was blocked with 5% non-fat milk in TBST (50 mM Tris–HCl at pH 8.0, 150 mM NaCl, 0.1% Tween 20) followed by overnight incubation with the primary antibody at 4 °C. The following antibodies were used with the dilution ratio noted: rabbit anti-HMGB1 (1:1000, Cell Signaling Technology, #6893), rabbit anti-γ-H2A.X (1:1000, Cell Signaling Technology, #9718), rabbit anti-LC3B (1:1000, Cell Signaling Technology, #3868), mouse anti-GSTT1 (1:1000, GeneTex, GTX109250), rabbit anti-GSTM1 (1:1000, R&D system, MAB6894), mouse anti-GAPDH (1:50000, Abcam, ab8245). A peroxidase conjugated horse anti-mouse IgG secondary antibody (1:20000, Vector Laboratories, PI-2000) or peroxidase conjugated goat anti-Rabbit IgG secondary antibody (1:20000, Vector Laboratories, PI-1000) was used for western blot. ECL signals were developed and detected using the SuperSignal™ West Femto Maximum Sensitivity Substrate (Life Technologies, 34094) and a C-DiGit Chemiluminescent Western Blot Scanner (LI-COR). Uncropped scans of all the blots were shown in Supplementary Fig. 7 in the Supplementary Information.

primary human islets = assay: Primary human islets, INS and propidium iodide staining; type: cell-based; details: 2 mM GSH
Description: Fig. 1 A high-content screen identifies propargite as a compound that induces pancreatic β-cell death. a Scheme of pancreatic β-cell differentiation and high-content chemical screen. b Chemical structure of two hit compounds: Propargite and Vacor. c Inhibitory curve and IC50 of propargite or Vacor on INS^+ and INS^− cells (n = 8). d, e Immunocytochemistry analysis (d) and survival rate (e) of H1-derived glucose-responding INS^+ and INS^− cells treated with different doses of propargite (n = 8). Pancreatic β-like cells were stained for INS (green) and all cells were counterstained by DAPI (blue). Scale bars, 100 μm. The survival rate was calculated by dividing the average number of cells in propargite-treated conditions by the average number of cells in the DMSO control. f, g Representative live images (f) and fold-change (g) of INS^w/GFP HES3-derived INS-GFP^+ cells treated with 1.6 μM propargite or DMSO control at different time points compared to initial time 0 (n = 3). Scale bars, 100 μm. h, i, j Representative images (h) and cell survival rate (i) or cell death rate (j) of DMSO or propargite-treated human primary islets (n = 3). Pancreatic β-cells were stained with the INS antibody (green) and dead cells were stained with propidium iodide (PI) (red). Scale bars, 200 μm. Scale bars for higher resolution (Zoom) images, […]. Pancreatic β-cell death rate was calculated by defining percentages of INS^+ PI^+ cells in INS^+ cells, and non-β-cell death rate was calculated by percentages of INS^−PI^+ cells in INS^− cells.

INS- cells = assay: High-content survival / inhibitory curve, hESC-derived INS- cells; type: cell-based, human; details: Homo sapiens, 96 h; H1 hESC-derived, β-cell differentiation protocol 1, 4 days treatment, n = 8
Procedure: as §1, with “Hit compounds were then selected and validated in three additional independent experiments using the same protocol as the primary screening.” left out
hESCs-derived INS^+ cells, MSCs[43], neurons, and hepatocytes[44] were derived based on the reported protocols and re-plated on 96-well plates with Accutase digestion. […] Plates were analyzed by ImageXpress^MICRO Automated High-Content Analysis System.

Row | SMILES | rescue of survival rate of INS+ cells after propargite treatment (INS+ cells; 2 mM GSH) | rescue of propargite-induced DNA damage (γ-H2A.X expression) (MIN6 cells) | rescue of propargite-induced necrosis (extracellular HMGB1) (MIN6 cells) | rescue of propargite-induced β-cell-specific death in human islets (primary human islets) | IC50 (INS+ cells; Homo sapiens, 96 h, read-out: IC50 for INS+ cells) [µM] | IC50 (INS- cells) [µM]
1 | N[C@@H](CCC(=O)N[C@@H](CS)C(=O)NCC(=O)O)C(=O)O [GSH, glutathione, reference compound] | fully rescued | fully rescued | partially rescued | rescued |  | 
2 | O=C(NCc1cccnc1)Nc1ccc([N+](=O)[O-])cc1 [Vacor, N-3 pyridylmethyl-N′’-4-nitrophenyl urea] |  |  |  |  | 4.89 | 61.6
